In patent publication US20120010229A1, “THERAPEUTIC REGIMENS FOR HEDGEHOG-ASSOCIATED CANCERS” (priority 2010, published 2012):

Legend:
wild type human SMO = molecular target: T1, wild type human SMO (Homo sapiens, UniProt Q99835); assay: Gli-luciferase reporter assay, C3H10T1/2 cells transfected with wild type SMO; type: cell-based, mouse
T1 construct: host or cells: C3H10T1/2 cells (ATCC CCL-226), mouse
Procedure: (§1) Wild type human SMO was subcloned into pcDNA3.1 from an expression construct in pCMV6 (Origene #SC122724). D473H SMO was then generated by site-directed mutagenesis using the Stratagene QuikChange kit (Agilent #200519) and sequence verified.
(§2) Gli-Luciferase reporter assays were performed as described. (Yauch et al. (2009) Science 326: 572-574) Briefly, C3H10 T1/2 cells (ATCC, #CCL-226) were plated in six-well plates at 1×10 to 5th cells per well in BME (Gibco #21010) with 10% FBS (Hyclone #SH30070.03), 2 mM Glutamine (Gibco #25030) and 50 units penicillin/50 ug streptomycin (Gibco #15140). The next morning, cells were transfected with 400 ng SMO expression construct, 400 ng 8× Gli-Luc, and 200 ng pRL-TK per well with GeneJuice transfection reagent (Novagen #70967). Cells in each well were lifted six hours later and replated into four wells of a 12 well plate and allowed to attach overnight. Medium was then changed to low (0.5%) serum and compounds were added in quadruplicate in a range of concentrations. After a 48 hour incubation, firefly and renilla luciferase were assayed using the Promega Dual-Glo Luciferase Assay System (Promega #E2940) and ratios were used to determine percent of control using Prism graphing software.

D473H SMO mutant = molecular target: T2, D473H SMO mutant (Homo sapiens, UniProt Q99835, D473H); assay: Gli-luciferase reporter assay, C3H10T1/2 cells transfected with D473H SMO; type: cell-based, mouse
T2 construct: expressed in transfected cells; host or cells: C3H10T1/2 cells (ATCC CCL-226), mouse
Procedure: as §1, §2

H1650 xenograft = assay: H1650 mutant EGFR non-small cell lung cancer xenograft, post Gefitinib; type: in vivo
Procedure: The efficacy of IPI-926 was evaluated when applied as a maintenance therapy following treatment of a xenograft non-small cell lung cancer model with a tyrosine kinase inhibitor. […] Sonic hedgehog ligand is detected by immunohistochemical staining (IHC) of sections of non-small cell lung cancer (FIG. 8A).

[1] = tested on: L3.6pl P-lucky liver metastasis; assay: L3.6pl liver metastasis model, Study #2; type: in vivo
Procedure: Model Procedure: Animals were anesthetized and prepared for surgery. The animal's spleen was exposed and 100 μl (1 million cells) of the L3.6pl single cell suspension was injected directly in the spleen towards the splenic vein (intra splenic injection). Once the injection was complete, the splenic artery and splenic vein were ligated, the spleen was excised, and the animals' wounds were closed. Post-op care and analgesia was given for 4 consecutive days and animals were monitored for recovery.
Prior to the procedure listed above 48 animals were separated into […].
Animals in group 2 (Day-of-Treatment), received IPI-926 every-other-day beginning on the day of the intra splenic injection procedure, continuing until the study end.
Animals in group 3 (Pre-Treatment Day −2), received IPI-926 every-other-day starting two days prior to the day of the intra splenic injection procedure, continuing until the study end.
Animals in group 4 (Pre-Treatment Day −7), received IPI-926 every-other-day starting seven days prior to the day of the intra splenic injection procedure, continuing until the study end.
Animals in group 5 (Pre-Treatment Day −14—treatment stopped on Day 0), received IPI-926 every-other-day starting fourteen days prior to the day of the intra splenic injection procedure and ending on the day of implant.
Animals in group 6 (Pre-Treatment Day −14), received IPI-926 every-other-day starting fourteen days prior to the day of the intra splenic injection procedure, continuing until the study end.
Results Procedure: Animals were injected with 10 ml/kg of luciferin concentrated at […] via I.P. injection. This luciferin binds to the L3.6pl P-Lucky cells injected on day 0. Utilizing Calipers Xenogen© machine, this cell-luciferin association emits bioluminescence that can be read and quantified.
Results: FIGS. 12A-12B represent the results from the quantification, normalized on each day to the average of vehicle treated animals. This normalization was done using the formula: (1/(average flux of vehicle animals/average flux of group X (group being compared))).

[2] = mouse, in vivo
Procedure: IPI-926 drug levels in tumor and brain samples were determined as described previously (Olive et al., (2009) Science 324: 1457-1461). Briefly, samples were homogenized in 4 volumes of CAN:PBS buffer and homogenized using a Geno/Grinder from SPEX CertiPrep (Metuchen, N.J.) for 2 minutes. Homogenates were then filtered using […] low binding hydrophilic multiscreen solvinert late (Millipore) and collected in a 96-well plate. The tissue filtrates were diluted 1:1 and IPI-926 levels were determined. Sample analysis was performed on an Agilent 1200 from Agilent Technologies (Santa Clara, Calif.) coupled with an API-4000 mass spectrometer from Applied Biosystems (Foster City, Calif.) for detection. Data were acquired and processed using the software Analyst 1.4.1 (Applied Biosystems). Sample concentrations, as measured by their peak area ratios (analyte divided by internal standard), were determined from the calibration curves.

Phase 1 clinical trial = type: in vivo
L3.6pl xenografts = conditions: with paclitaxel bonded to albumin (Abraxane)
[3] = in vivo, cited from earlier work
[4] = tested on: KPC mice pancreatic tumors; conditions: combination of IPI-926 and Gemcitabine; cited from earlier work
[5] = tested on: Hedgehog pathway in stromal cells; conditions: after single administration; cited from earlier work

T1 sequence (Q99835 28-787): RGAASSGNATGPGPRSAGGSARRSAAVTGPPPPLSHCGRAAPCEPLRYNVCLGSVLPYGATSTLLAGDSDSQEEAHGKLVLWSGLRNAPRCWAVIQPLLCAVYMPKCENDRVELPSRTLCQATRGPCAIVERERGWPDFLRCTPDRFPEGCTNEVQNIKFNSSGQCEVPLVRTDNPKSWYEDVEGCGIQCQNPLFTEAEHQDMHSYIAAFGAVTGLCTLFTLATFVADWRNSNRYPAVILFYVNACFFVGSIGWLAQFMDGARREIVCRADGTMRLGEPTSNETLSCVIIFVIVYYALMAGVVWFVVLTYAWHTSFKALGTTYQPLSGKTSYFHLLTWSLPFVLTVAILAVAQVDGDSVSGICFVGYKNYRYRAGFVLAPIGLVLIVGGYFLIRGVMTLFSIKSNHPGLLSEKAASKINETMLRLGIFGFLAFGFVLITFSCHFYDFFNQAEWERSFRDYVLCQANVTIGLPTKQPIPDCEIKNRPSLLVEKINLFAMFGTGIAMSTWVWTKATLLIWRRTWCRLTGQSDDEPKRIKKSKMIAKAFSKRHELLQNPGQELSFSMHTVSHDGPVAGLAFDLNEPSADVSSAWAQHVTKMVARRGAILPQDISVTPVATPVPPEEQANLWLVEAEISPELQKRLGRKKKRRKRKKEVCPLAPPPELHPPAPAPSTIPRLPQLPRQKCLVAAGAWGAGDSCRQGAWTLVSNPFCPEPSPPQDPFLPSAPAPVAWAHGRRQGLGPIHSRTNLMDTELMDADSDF
T2 sequence (Q99835 28-787 D473H): as the sequence (Q99835 28-787) above, with D446H counted along it

In the case of `CC1=C2C[C@H]3[C@@H](CC[C@@H]4C[C@H](NS(C)(=O)=O)CC[C@@]43C)[C@@H]2CC[C@@]2(C1)O[C@@H]1C[C@H](C)CN[C@H]1[C@H]2C` [IPI-926], the IC50 (wild type human SMO) is reported as 9 nM, the IC50 (D473H SMO mutant) is reported as 244 nM and the “tumor volume after cessation of Gefitinib” value (H1650 xenograft; Gefitinib 40 mg/kg orally one week followed by IPI-926 once a day for three weeks) is reported as “prolonged duration of the tumor inhibition”. For the same compound, the “mGLI-1 mRNA expression in lung tumor samples” value (H1650 xenograft; IPI-926 in combination with Gefitinib) was “inhibit mGLI-1 mRNA expression”, the “take or growth of metastasis within the liver” value ([1]; 2 days of pre treatment) was “no effect” and the “overall survival vs vehicle” value ([1]; 7 days of pre-treatment) was “survival benefit”. For the same compound, the “overall survival vs vehicle” value ([1]; 14 days of pre-treatment then stopping) was “survival benefit”, the “reduction in luminescence below vehicle” value ([1]; 14 days prior to implant then stopping dosing, early time point) was “roughly 15 fold” and the “decrease in bioluminescence compared to vehicle” value ([1]; 14 days prior to implant then stopping dosing, latest time point) was 5 fold. For the same compound, the “take or growth of metastasis within the liver” value ([1]; day of implant treatment) was “no effect”, the “overall survival vs vehicle” value ([1]; pre-treatment beginning at day -2) was “limited survival benefits” and the “reduction in bioluminescence below vehicle” value ([1]; treatment from 7 days prior to implant) was 10-15 fold. For the same compound, the “increase of overall survival rate, factor” value ([1]; treatment from 14 days prior to implant) was at least 2, the “reduction in flux (bioluminescence) below vehicle” value ([1]; treatment from 14 days prior to implant, continued) was 20-25 fold and the “overall survival vs vehicle” value ([1]; treatment starting on the day of implant, day 0) was “no benefit”. The “blood brain barrier penetration” value [2] was “crossed the blood brain barrier”, the clinical activity (Phase 1 clinical trial) was “demonstrated clinical activity” and the tolerability (Phase 1 clinical trial) was “well-tolerated”. The “effect on therapeutic agent effect of Abraxane” value (L3.6pl xenografts) was “enhances the therapeutic agent effect”, the oral bioavailability ([3]; po) was “orally bioavailable” and the duration of action [3] was “long duration of action”. The plasma half-life [3] was “long plasma half-life”, the “intratumoral vascular density and gemcitabine concentration” value [4] was “transient increase in intratumoral vascular density and intratumoral concentration of gemcitabine” and the “Hedgehog pathway inhibition in stromal cells” value [5] was “rapid and sustained Hedgehog pathway inhibition”.
